Test results as given in US12419897B2 (President and Fellows of Harvard College, priority 2018, dated 2025).
“Also recorded” adds a separate entry of the source.

Key:
human TGR5 = biological target: T1, human TGR5 (Homo sapiens, UniProt Q8TDU6); assay: Luciferase reporter assay for human TGR5 activation in HEK293T cells overexpressing human TGR5; type: cell-based; conditions: for TGR5 activation: HEK293T cells overexpressing human TGR5, luminescence readout; for EC50: HEK293T cells overexpressing human TGR5
T1 construct: expressed in transfected cells; host or cells: HEK293T
T1 sequence (Q8TDU6 1-330): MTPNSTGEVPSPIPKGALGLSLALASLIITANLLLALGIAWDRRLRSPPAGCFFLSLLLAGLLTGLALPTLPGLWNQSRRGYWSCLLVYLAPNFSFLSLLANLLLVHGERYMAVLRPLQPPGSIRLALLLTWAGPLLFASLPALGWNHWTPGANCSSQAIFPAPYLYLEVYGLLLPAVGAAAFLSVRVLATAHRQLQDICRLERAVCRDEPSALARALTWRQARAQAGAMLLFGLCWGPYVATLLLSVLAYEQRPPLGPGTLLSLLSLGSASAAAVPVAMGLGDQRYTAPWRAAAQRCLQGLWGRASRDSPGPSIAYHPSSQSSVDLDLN
Experimental: Human TGR5 was overexpressed in HEK93T cells along with a luciferase-based TGR5 reporter plasmid. Cells were then incubated with different concentrations of compounds overnight, and TGR5 activation was measured as a luminescence readout.
Plasmids and transient transfections. Human TGR5 was cloned using cDNA from human Caco-2 cells as template and a forward primer with an EcoRIrestriction-site (5′-[…]-3′) and a reverse primer with a XhoI-site (5′-[…]-3′). The PCR product was cloned into the pCDNA 3.1+plasmid (Promega Corporation, Madison, Wis.) and transfected at a concentration of 0.4 μg/ml of media. For luciferase reporter assays for TGR5 activation, the pGL4.29[luc2P/CRE/Hygro] plasmid (Promega Corporation), and the pGL4.74[hRluc/CMV] plasmid (Promega Corporation) were used at concentration of 2 μg/ml and 0.05 μg/ml of media respectively. All plasmids were transfected using Opti-MEM (Gibco) and Lipofectamine 2000 (Invitrogen, Life Technologies, Grand Island, N.Y., USA) according to manufacturer's instructions. Plasmid transfection were performed in antibiotic-free media (MEM for HEK293T and RPMI for Matrigel-attached NCI-H716 cells) with 10% FBS. After overnight incubation, compounds were added in complete media and incubated overnight. Cells were harvested the next day for luciferase assay.
Luciferase reporter assay. Luminescence was measured using the Dual-Luciferase Reporter Assay System (Promega Corporation) according to manufacturer's instructions. Cells were washed gently with PBS and lysed in PLB from the kit. Matrigel-attached cells were scraped in PLB. Luminescence was measured using the SpectraMax M5 plate reader (Molecular Devices, San Jose, Calif.) at the ICCB-Longwood Screening Facility at Harvard Medical School. Luminescence was normalized to Renilla luciferase activity and percentage relative luminescence was calculated compared to DMSO control.

NCI-H716 cells [1] = assay: GLP-1 synthesis and secretion in NCI-H716 cells; type: cell-based, human; conditions: for GLP-1 secretion: in vitro; for total GLP-1 (GLP-1 synthesis): media + cell lysates; for total GLP-1 (GLP-1 synthesis) / GLP-1 secretion by CA7S extracted from cecal contents of SG mice: vs DMSO control; for GLP-1 secretion by CA7S extracted from cecal contents of SG mice: 500 μM
Experimental: GLP-1 synthesis and secretion were measured in matrigel-polarized NCI-H716 cells. […] (FIG. 28B)
Treatment with compounds. […] The cells were allowed to grow for 2 days in complete RPMI media. […] The concentration of DMSO was kept constant throughout the treatments and used as a negative control. Cells were incubated at 37° C. in an atmosphere of 5% CO2 for 2 hours. After the incubation period, cell culture media was collected in Eppendorf tubes containing 1% trifluoroacetic acid (TFA, Sigma) in sterile purified water (GenClone) to make a final TFA concentration of 0.1% and frozen at −80° C. for further GLP-1 measurements. Cells on cell culture plates were placed on ice and gently washed with PBS (GenClone). Cells used for GLP-1 measurements were treated with ice-cold cell lysis solution of 1% TFA, 1N hydrochloric acid, 5% formic acid, and 1% NaCl (all from Sigma), scraped off of the Matrigel coating, and collected in 96-well plates for peptide purification. Lysates were stored at −80° C. for further analysis.
GLP-1 measurement. Total GLP-1 peptide measurements were performed using the GLP-1 EIA Kit (Sigma, Cat. No. RAB0201) according to manufacturer's instructions. Cell culture media and cell lysates were subjected to peptide purification using Sep Pak C18 Classic columns (Waters Corporation, Milford, Mass.). The column was pretreated with a solution of 0.1% TFA in 80% isopropyl alcohol (EMD Millipore) and equilibrated with 0.1% TFA in water. Cell culture media and cell lysates were loaded onto the column and washed with […]. The peptides were eluted in […]. The eluate was concentrated by drying under vacuum and resuspended in 0.1% TFA in water. 0.1% TFA in water was used as ‘blank’ for cell culture media and purified cell lysate ELISAs. Excess samples were stored at −80° C. for later analyses. Total GLP-1 amounts in the cell culture media (secreted) and cell lysates were calculated using a standard curve provided in the EIA kit.

NCI-H716 cells [2] = assay: Intracellular calcium levels in NCI-H716 cells (L-cells); type: cell-based, human; conditions: NCI-H716 cells (L-cells) in vitro
Caco-2 cells = assay: Caco-2 cell viability assay (CellTiter-Glo, ATP luminescence); type: cell-based; conditions: concentrations up to 3 mM
Experimental: Compounds were also tested for toxicity using Caco-2 cells, a human intestinal epithelial cancer cell line. Caco-2 cells were incubated with compounds for 16 hours and cell death was determined using a luminescence assay measuring ATP levels as a readout for cell viability.
Cell viability assay. Caco-2 cells were treated with compounds diluted in DMSO in complete MEM media. The concentration of DMSO was kept constant and used as a negative control. Cells were incubated with compounds overnight at 37° C. in an atmosphere of 5% CO2. The next day, cell viability was measured using CellTiter-Glo Luminescent Cell Viability Assay from Promega Corporation according to manufacturer's instructions. Luminescence was measured using the SpectraMax M5 plate reader (Molecular Devices, San Jose, Calif.) at the ICCB-Longwood Screening Facility at Harvard Medical School. Luminescence was normalized to DMSO control and percentage relative luminescence was calculated compared to DMSO control.

[3] = Stability after incubation in buffer at physiological pHs (UPLC-MS); type: physicochemical; conditions: 37° C. in buffer at physiological pHs
DIO mice = assay: Acute treatment of DIO mice via duodenal and rectal catheters: GLP-1 and blood glucose; type: in vivo, mouse; conditions: HFD-fed (DIO) mice, 1 mg, vs PBS; for systemic GLP-1 levels in vivo: within 15 minutes
Experimental: Next, the ability of CA7S to stimulate GLP-1 secretion and improve hyperglycemia in vivo was evaluated. DIO mice were treated with either CA7S or PBS via duodenal and rectal catheters (FIG. 17A).

[4] = listed as Cholic acid 7-sulfate
[5] = listed as cholic acid 7-sulfate
[6] = HFD-fed mice, acute cholic acid 7-sulfate treatment

## C[C@H](CCC(=O)O)[C@H]1CCC2[C@H]3C(CC[C@@]21C)[C@@]1(C)CC[C@@H](O)C[C@H]1C[C@H]3S(=O)(=O)O (stereo partly drawn) [Compound 6, (4R)-4-((3R,5S,7R,8R,10S,13R,17R)-3-hydroxy-10,13-dimethyl-7-sulfohexadecahydro-1H-cyclopenta[a]phenanthren-17-yl)pentanoic acid]
Human TGR5
  TGR5 activation: induced TGR5 activation in a dose-dependent manner; also recorded: activated TGR5
NCI-H716 cells [1]
  GLP-1 secretion: induced an increase in GLP-1 synthesis and secretion
  total GLP-1 (GLP-1 synthesis): increased total GLP-1; also recorded: induced an increase in GLP-1 synthesis and secretion

## C[C@H](CCC(=O)NCCS(=O)(=O)O)[C@H]1CC[C@H]2[C@@H]3CC[C@@H]4C[C@H](O)CC[C@]4(C)[C@H]3C[C@H](O)[C@]12C [TDCA, tauro-deoxycholic acid]
NCI-H716 cells [1]
  GLP-1 secretion after siRNA-mediated knockdown of TGR5: abolished

## C[C@H](CCC(=O)O)[C@H]1CC[C@H]2[C@@H]3[C@H](O)C[C@@H]4C[C@H](O)CC[C@]4(C)[C@H]3C[C@H](O)[C@]12C [CA, cholic acid]
NCI-H716 cells [1]
  GLP-1 secretion: had no effect on GLP-1 secretion
NCI-H716 cells [1]; listed as cholic acid
  GLP-1 secretion: had no effect

## C[C@H](CCC(=O)O)[C@H]1CC[C@H]2[C@@H]3[C@H](NS(=O)(=O)O)[C@H](O)[C@@H]4C[C@H](O)CC[C@]4(C)[C@H]3CC[C@]12C [Compound 3]
Human TGR5
  TGR5 activation: induced TGR5 activation in a dose-dependent manner; also recorded: activate TGR5
NCI-H716 cells [1]
  GLP-1 secretion: induced GLP-1 secretion; also recorded: induce GLP-1 synthesis and secretion
  total GLP-1 (GLP-1 synthesis): increased total GLP-1; also recorded: induce GLP-1 synthesis and secretion

## C[C@H](CCC(=O)O)[C@H]1CC[C@H]2[C@@H]3[C@H](NS(=O)(=O)O)C[C@@H]4C[C@H](O)CC[C@]4(C)[C@H]3C[C@H](O)[C@]12C [Compound 1]
Human TGR5
  EC50: 2.4 µM
  TGR5 activation: induced TGR5 activation in a dose-dependent manner; also recorded: activate TGR5
NCI-H716 cells [1]
  GLP-1 secretion: induce GLP-1 synthesis and secretion
  total GLP-1 (GLP-1 synthesis): increased total GLP-1; also recorded: induce GLP-1 synthesis and secretion

## C[C@H](CCC(=O)O)[C@H]1CC[C@H]2[C@@H]3[C@H](NS(=O)(=O)O)C[C@@H]4C[C@H](O)CC[C@]4(C)[C@H]3CC[C@]12C [Compound 2]
Human TGR5
  EC50: 1.7 µM
  TGR5 activation: induced TGR5 activation in a dose-dependent manner; also recorded: activate TGR5
NCI-H716 cells [1]
  GLP-1 secretion: induced GLP-1 secretion; also recorded: induce GLP-1 synthesis and secretion
  total GLP-1 (GLP-1 synthesis): increased total GLP-1; also recorded: induce GLP-1 synthesis and secretion

## C[C@H](CCC(=O)O)[C@H]1CC[C@H]2[C@@H]3[C@H](OS(=O)(=O)O)C[C@@H]4C[C@H](O)CC[C@]4(C)[C@H]3C[C@H](O)[C@]12C [CA7S, cholic acid 7-sulfate]
Human TGR5
  TGR5 activation: activated human TGR5 in a dose-dependent manner
Human TGR5; [4]
  TGR5 activation: induces TGR5 activation
NCI-H716 cells [1]
  GLP-1 secretion by CA7S extracted from cecal contents of SG mice: also induced GLP-1 secretion in vitro
  GLP-1 secretion after siRNA-mediated knockdown of TGR5: abolished
  GLP-1 secretion: induced GLP-1 secretion to a similar degree as TDCA in a dose-dependent manner
NCI-H716 cells [1]; [5]
  GLP-1 secretion by CA7S extracted from cecal contents of SG mice: exhibit activity inducing GLP-1 secretion
  GLP-1 secretion after siRNA-mediated knockdown of TGR5: abolished GLP-1 secretion
NCI-H716 cells [1]; [4]
  GLP-1 secretion: induces GLP-1 secretion in vitro better than the known GLP-1 inducer TDCA
NCI-H716 cells [2]
  intracellular calcium levels: dose-dependent increase in calcium levels
NCI-H716 cells [2]; [4]
  intracellular calcium levels: increased calcium levels
Caco-2 cells
  viability of Caco-2 cells: does not affect the viability
Caco-2 cells; [4]
  viability of Caco-2 cells: no toxicity
[3]
  pH stability: stable at physiological pHs
[3]; [4]
  pH stability: stable in a wide range of pHs
DIO mice; within 15 min
  blood glucose levels in vivo: reduced blood glucose levels
DIO mice
  systemic GLP-1 levels in vivo: increased systemic GLP-1 levels
DIO mice; [5]
  systemic GLP-1 levels in vivo: induced GLP-1 levels
[6]
  Cholic acid 7-sulfate concentration (mean ± SEM), Cecum: 2577 ± 185.3 pmol/mg
  Cholic acid 7-sulfate concentration (mean ± SEM), Hepatic portal vein: 6.128 ± 2.111 pmol/mg
Administration of 1 mg, duodenal and rectal catheters
  CA7S in cecal contents, on average: 2500 pmol/mg wet mass
Dosing with 1 mg
  cholic acid 7-sulfate in the cecum: ~2500 µM
Ectopic introduction in mice, listed as cholic acid 7-sulfate
  amounts in systemic circulation and portal vein (gut restriction): only minor amounts
